{
  "source": "patent US20260097091A1",
  "about": "“ADMINISTRATION OF GLUTATHIONE TRISULFIDE TO AMELIORATE PERIPHERAL NEUROPATHY” (The General Hospital Corporation, priority 2022, published 2026)",
  "key": {"[1]": {"test_system": "Nrf2-dependent antioxidant signaling in DRG", "assay": "real-time qPCR of antioxidant genes in lumbar DRG", "format": "in vivo, mice", "conditions": "2 hours after single 16 mg/kg paclitaxel i.p. with or without 50 mg/kg GSSSG oral", "procedure": "Changes in gene expression in lumber dorsal root ganglions (DRG) induced by paclitaxel and GSSSG were examined with real-time qPCR after a single administration of paclitaxel with or without GSSSG. We simultaneously administered 16 mg/kg paclitaxel by intraperitoneal injection and 50 mg/kg GSSSG by oral gavage and examined the mRNA expression 2 hours later. Lumbar DRG were isolated from mice as described previously. Removed DRG were immersed in RNA later (Invitrogen, Cat No. AM7020) at 4° C. overnight. After retrieving from RNA later, they were stored at −80° C. DRGs were homogenized in TRIzol reagent (ThermoFisher Scientific, Cat No. 15596026) and mixed with chloroform. After centrifugation at 14000×g at 4° C. for 15 minutes, the transparent top layer was transferred to a new tube. The samples were mixed with 400 μl of isopropanol and incubated at −20° C. for 20 minutes. After centrifugation at 14000×g at 4° C. for 15 minutes, the pellets were collected, mixed with 70% ethanol, and centrifuged at 14000×g at 4° C. for 10 minutes. The pellets were dried for 10 minutes and incubated with 50 μl of nuclease-free water. Complementary DNA was synthesized using the cDNA Reverse Transcription Kit (Applied Biosystems, Cat No. 4368814) and quantitative PCR was performed by using SYBR green (Applied Biosystems, Cat No. A46109). Relative quantification of gene expression was performed via 2^−ΔΔCT method."}, "[2]": {"test_system": "MDA-MB-231 human breast cancer cells", "assay": "MDA-MB-231 live cell count by trypan blue exclusion assay", "format": "cell-based", "conditions": "24 hours", "procedure": "To examine whether co-administration of GSSSG affects anti-tumor effects of paclitaxel, we conducted experiments using MDA-MB-231, a human breast cancer cell line (HTB-26, ATCC). Cells were cultured in the medium of 90% RPMI1640 (Corning, Cat No. 10-040-CV), 10% FBS, and 1% penicillin/streptomycin. After being seeded into a 96-well plate at the density of 20,000/well and cultured overnight, they were exposed to different concentrations of paclitaxel (0.125 μM, 0.25 μM, 0.5 μM, 1 μM, and 2 μM) and incubated for 24 hours. Cell viability was evaluated by LDH Cytotoxicity Detection Kit (Roche, Cat No. 11644793001). Briefly, a plate was centrifuged at 250×g for 10 minutes. […] After mixing with assay enzyme for 30 minutes at 25° C., absorbance was measured at wavelength 492 nm to determine cell viability. Inhibitory effects of paclitaxel were calculated by half-maximal inhibitory concentration (IC50). […] After being stripped by 0.25% trypsin, live cells were counted under 0.04% trypan blue. Five wells were evaluated per group.\nSample sizes for behavior test were chosen based on a previous study. All values are expressed as mean±standard deviation (SD). The behavior test results were analyzed in the mixed effect model because the behavior was measured repeatedly over five times from the same mice, and individual differences at baseline were confirmed in the preliminary study. […]"}},
  "data": [
    {"compound": "N[C@@H](CCC(=O)N[C@@H](CSSSC[C@H](NC(=O)CC[C@H](N)C(=O)O)C(=O)NCC(=O)O)C(=O)NCC(=O)O)C(=O)O", "note": "[GSSSG, glutathione trisulfide]", "values": [
      {"measurement": "Nrf2 mRNA levels", "setting": "[1]", "value": "increased Nrf2 mRNA levels"},
      {"measurement": "expression of GCLC", "setting": "[1]", "value": "upregulated"},
      {"measurement": "expression of HO1", "setting": "[1]", "value": "upregulated"},
      {"measurement": "levels of NQO1 mRNA", "setting": "[1]", "value": "modestly increased"},
      {"measurement": "number of alive MDA-MB-231 cells", "setting": "[2]; 2 μM paclitaxel + 10 μM GSSSG", "value": "48.3 % of control cells"}
    ]},
    {"compound": "CC(=O)O[C@H]1C(=O)[C@@]2(C)[C@H]([C@H](OC(=O)c3ccccc3)[C@]3(O)C[C@H](OC(=O)[C@H](O)[C@@H](NC(=O)c4ccccc4)c4ccccc4)C(C)=C1C3(C)C)[C@]1(OC(C)=O)CO[C@@H]1C[C@@H]2O", "note": "[paclitaxel, Paclitaxel, reference compound]", "values": [
      {"measurement": "Nrf2 mRNA levels", "setting": "[1]", "value": "increased Nrf2 mRNA levels"},
      {"measurement": "expression of GCLC", "setting": "[1]", "value": "not paclitaxel alone"},
      {"measurement": "expression of HO1", "setting": "[1]", "value": "not paclitaxel alone"},
      {"measurement": "levels of NQO1 mRNA", "setting": "[1]", "value": "not paclitaxel alone"},
      {"measurement": "number of alive MDA-MB-231 cells", "setting": "[2]; 2 μM paclitaxel alone", "value": "44.9 % of control cells"}
    ]}
  ]
}
